Read-outs that look alike come from different tables or passages of the source. Blank lines part the entries; values can stand above or below the compound they belong to.
Assays:
[1] = Determination of the log P values by HPLC (formic acid method); type: physicochemical; details: reversed-phase column (C 18), acidic range (pH 3.4), 55° C.; for chromatographic logP: reversed-phase HPLC column (C 18)
Method: 1) Description of Method for Determination of the Log P Values (Formic Acid Method)
Eluents for determination in the acidic range (pH 3.4):
Eluent A: acetonitrile+1 ml of formic acid/liter. Eluent B: water+0.9 ml of formic acid/liter.
The lambda max values were determined in the maxima of the chromatographic signals using the UV spectra from 200 nm to 400 nm.

[2] = tested on: Phaedon cochleariae; experiment: Phaedon cochleariae spray test (PHAECO); type: in vivo; details: foliar, 168 h, application rate 500 g/ha, larvae on Chinese cabbage leaf discs, after 7 days, read-out: efficacy
Method: Phaedon cochleariae Spray Test (PHAECO)
(§1) Solvents: 78.0 parts by weight of acetone • • 1.5 parts by weight of dimethylformamide
(§2) Emulsifier: 0.5 part by weight of alkylaryl polyglycol ether
(§3) To produce a suitable preparation of active compound, 1 part by weight of active compound is mixed with the stated amounts of solvents and emulsifier, and the concentrate is diluted with emulsifier-containing water to the desired concentration.
After 7 days, the efficacy in % is determined. 100% means that all of the beetle larvae have been killed; 0% means that none of the beetle larvae have been killed.

[3] = tested on: Spodoptera frugiperda; experiment: Spodoptera frugiperda spray test (SPODFR); type: in vivo; details: caterpillars on maize leaf discs, after 7 days
Method: Spodoptera frugiperda Spray Test (SPODFR)
as §1, §2, §3
Leaf discs of maize (Zea mays) are sprayed with an active compound formulation of the desired concentration and, after drying, populated with caterpillars of the armyworm (Spodoptera frugiperda).
After 7 days, the efficacy in % is determined. 100% means that all of the caterpillars have been killed; 0% means that none of the caterpillars have been killed.

[4] = tested on: Lucilia cuprina larvae; experiment: Lucilia cuprina test (LUCICU); type: in vivo; details: application rate 100 ppm; larvae on treated horse meat; after 2 days
Method: Lucilia cuprina Test (LUCICU)
(§4) Solvent: dimethyl sulphoxide
To produce a suitable preparation of active compound, 10 mg of active compound are mixed with 0.5 ml of dimethyl sulphoxide, and the concentrate is diluted with water to the desired concentration.
Vessels containing horse meat treated with the active compound preparation of the desired concentration are populated with about 20 Lucilia cuprina larvae.
After 2 days, the kill in % is determined 100% means that all of the larvae have been killed; 0% means that none of the larvae have been killed.

[5] = tested on: Cooperia curticei; experiment: Cooperia curticei test (COOPCU); type: in vivo
Method: Cooperia curticei Test (COOPCU)
as §4
(§5) To produce a suitable preparation of active compound, 10 mg of active compound are mixed with 0.5 ml of dimethyl sulphoxide, and the concentrate is diluted with Ringer solution to the desired concentration.
Vessels containing the active compound preparation of the desired concentration are populated with about 40 nematode larvae (Cooperia curticei).
(§6) After 5 days, the kill in % is determined 100% means that all of the larvae have been killed; 0% means that none of the larvae have been killed.

[6] = tested on: Meloidogyne incognita; experiment: Meloidogyne incognita test (MELGIN); type: in vivo; details: Meloidogyne incognita, 336 h; application rate 20 ppm; lettuce in sand; after 14 days; read-out: nematicidal effect (formation of galls)
Method: Meloidogyne incognita Test (MELGIN)
Solvent: 125.0 parts by weight of acetone
To prepare a suitable active compound preparation, 1 part by weight of active compound is mixed with the stated amount of solvent and the concentrate is diluted with water to the desired concentration.
Vessels are filled with sand, active compound solution, an egg/larvae suspension of the root-knot nematode (Meloidogyne incognita) and lettuce seeds. The lettuce seeds germinate and the plants develop. On the roots, galls are formed.
After 14 days, the nematicidal effect in % is determined by the formation of galls. 100% means that no galls have been found; 0% means that the number of galls on the treated plants corresponds to the untreated control.

[7] = tested on: Myzus persicae; experiment: Myzus persicae spray test (MYZUPE); type: in vivo; details: Chinese cabbage leaf discs, after 6 days
Method: Myzus persicae Spray Test (MYZUPE)
Solvents: 78 parts by weight of acetone • • 1.5 parts by weight of dimethylformamide
as §2, §3
Discs of Chinese cabbage leaves (Brassica pekinensis) infested by all stages of the green peach aphid (Myzus persicae) are sprayed with an active compound preparation of the desired concentration.
After 6 days, the efficacy in % is determined 100% here means that all of the aphids have been killed; 0% means that no aphids have been killed.

[8] = tested on: Boophilus microplus; experiment: Boophilus microplus test (DIP); type: in vivo; details: application rate 100 ppm, after 7 days by laying of fertile eggs, 100% = no fertile eggs
Method: Boophilus microplus Test (DIP)
Test animals: adult engorged Boophilus microplus females of the SP-resistant Parkhurst strain
as §4
10 mg of active compound are dissolved in 0.5 ml of dimethyl sulphoxide. For the purpose of preparing a suitable formulation, the active compound solution is diluted with water to the concentration desired in each case.
This active compound preparation is pipetted into tubes. 8-10 ticks are transferred into a further tube with holes. The tube is immersed into the active compound formulation, and all ticks are completely wetted. After the liquid has run out, the ticks are transferred onto filter discs in plastic dishes and stored in a climate-controlled room.
The activity is assessed after 7 days by laying of fertile eggs. Eggs whose fertility is not visible from the outside are stored in a climate-controlled cabinet until the larvae hatch. An efficacy of 100% means that none of the ticks has laid any fertile eggs.

[9] = tested on: Ctenocephalides felis; experiment: Ctenocephalides felis oral test (CTECFE); type: in vivo; details: application rate 100 ppm in citrated cattle blood; adult fleas; after 2 days
Method: Ctenocephalides felis—Oral Test (CTECFE)
Solvent: 1 part by weight of dimethyl sulphoxide
To produce a suitable preparation of active compound, 10 mg of active compound are mixed with 0.5 ml of dimethyl sulphoxide. A portion of the concentrate is diluted with citrated cattle blood, and the desired concentration is prepared.
About 20 unfed adult fleas (Ctenocephalides felis) are placed into a chamber which is closed at the top and bottom with gauze. A metal cylinder whose bottom end is closed with a parafilm is placed onto the chamber. The cylinder contains the blood/active compound preparation, which can be imbibed by the fleas through the Parafilm membrane.
After 2 days, the kill in % is determined 100% means that all fleas have been killed; 0% means that none of the fleas have been killed.

[10] = tested on: Haemonchus contortus; experiment: Haemonchus contortus test (HAEMCO); type: in vivo; details: application rate 4 ppm; larvae; after 5 days
Method: Haemonchus contortus Test (HAEMCO)
as §4, §5
Vessels containing the active compound preparation of the desired concentration are populated with about 40 larvae of the red stomach worm (Haemonchus contortus).
as §6

- chromatographic logP [1]: 3.16
SMILES: O=C(Nc1nn(-c2ccccc2Cl)cc1I)c1ccccc1C(F)(F)F [Compound I-1-17, N-[4-Iodo-1-(2-chlorophenyl)-1H-pyrazol-3-yl]-2-(trifluoromethyl)benzamide]
- pest or weed control at 500 g/ha [2]: 100%
- efficacy ([3]; application rate 500 g/ha): 83%

- chromatographic logP [1]: 2.8
SMILES: O=C(Nc1ccn(-c2ccccc2Cl)n1)c1ccccc1Cl [Compound I-1-20, 2-Chloro-N-[1-(2-chlorophenyl)-1H-pyrazol-3-yl]benzamide]
- efficacy (kill) [4]: 90%
- pest or weed control at 100 ppm ([5]; Cooperia curticei, 120 h, application rate 100 ppm, nematode larvae, after 5 days, read-out: efficacy (kill)): 90%
- pest or weed control at 20 ppm [6]: 90%
- pest or weed control at 500 g/ha [2]: 100%

- log P [1]: 3.04
SMILES: N#CCN(C(=O)c1ccccc1Cl)c1ccn(-c2ccccc2Cl)n1 [Compound I-1-25]
- efficacy ([7]; application rate 500 g/ha): 80%

- log P [1]: 2.99
SMILES: O=C(Nc1nn(-c2ccccc2Cl)cc1Br)c1ccccc1Cl [Compound I-1-29]
- efficacy ([3]; application rate 500 g/ha): 83%

- log P [1]: 3.10
SMILES: O=C(Nc1nn(-c2ccccc2Cl)cc1Cl)c1ccccc1I [Compound I-1-34]
- efficacy ([3]; application rate 500 g/ha): 83%

- log P [1]: 2.53
SMILES: Cc1cc(NC(=O)c2ccccc2I)nn1-c1ccccc1Cl [Compound I-1-35]
- efficacy ([3]; application rate 500 g/ha): 100%

- log P [1]: 2.84
SMILES: O=C(Nc1ccn(-c2ccccc2Cl)n1)c1c(F)cccc1Cl [Compound I-1-37]
- efficacy (kill) [4]: 90%

- log P [1]: 2.83
SMILES: O=C(Nc1ccn(-c2ccccc2Br)n1)c1ccccc1Cl [Compound I-1-51]
- efficacy (kill) [4]: 90%

- chromatographic logP [1]: 2.97
SMILES: O=C(Nc1ccn(-c2cccc(F)c2F)n1)c1ccccc1Br [Compound I-1-63, 2-Bromo-N-[1-(2,3-difluorophenyl)-1H-pyrazol-3-yl]benzamide]
- efficacy (kill) [4]: 80%
- pest or weed control at 20 ppm ([5]; Cooperia curticei, 120 h, application rate 20 ppm, nematode larvae, after 5 days, read-out: efficacy (kill)): 90%
- efficacy ([7]; application rate 500 g/ha): 90%
- pest or weed control at 500 g/ha [2]: 100%

- log P [1]: 1.53
SMILES: Cc1ncccc1C(=O)Nc1ccn(-c2cc(F)ccc2F)n1 [Compound I-1-69]
- efficacy (kill) [4]: 90%
- efficacy (kill) ([5]; application rate 100 ppm, nematode larvae, after 5 days): 80%

- log P [1]: 1.95
SMILES: CS(=O)(=O)c1ccccc1C(=O)Nc1ccn(-c2c(F)cccc2F)n1 [Compound I-1-80]
- efficacy ([7]; application rate 500 g/ha): 90%

- log P [1]: 2.59
SMILES: O=C(Nc1ccn(-c2c(F)cccc2F)n1)c1ccccc1Br [Compound I-1-82]
- efficacy [8]: 80%
- efficacy (kill) [4]: 95%

- log P [1]: 2.20
SMILES: O=C(Nc1ccn(-c2c(F)cccc2F)n1)c1ccccc1[N+](=O)[O-] [Compound I-1-86]
- efficacy ([7]; application rate 20 g/ha): 90%

- log P [1]: 3.36
SMILES: O=C(Nc1ccn(-c2cc(Cl)ccc2Cl)n1)c1ccccc1Cl [Compound I-1-118]
- efficacy ([3]; application rate 100 g/ha): 83%

- log P [1]: 2.24
SMILES: O=C(Nc1ccn(-c2ncccc2F)n1)c1ccccc1C(F)(F)F [Compound I-1-128]
- efficacy (kill) [9]: 85%

- log P [1]: 2.22
SMILES: O=C(Nc1ccn(-c2ncccc2F)n1)c1ccccc1I [Compound I-1-131]
- efficacy (kill) [9]: 90%

- log P [1]: 1.83
SMILES: O=C(Nc1ccn(-c2ncccc2F)n1)c1cccnc1C(F)(F)F [Compound I-1-133]
- efficacy ([7]; application rate 500 g/ha): 90%

- log P [1]: 2.21
SMILES: O=C(Nc1ccn(-c2ncccc2Cl)n1)c1ccccc1Cl [Compound I-1-136]
- efficacy ([3]; application rate 500 g/ha): 100%

- log P [1]: 2.45
SMILES: O=C(Nc1ccn(-c2ncc(F)cc2F)n1)c1ccccc1I [Compound I-1-145]
- efficacy (kill) [4]: 90%
- efficacy ([7]; application rate 500 g/ha): 90%

- log P [1]: 2.96
SMILES: O=C(Nc1ccn(-c2ccccc2C(F)(F)F)n1)c1ccccc1Br [Compound I-1-186]
- efficacy (kill) [4]: 80%

- log P [1]: 3.57
SMILES: O=C(Nc1ccn(-c2cc(F)ccc2F)n1)c1sccc1I [Compound I-1-221]
- efficacy (kill) ([5]; application rate 4 ppm, nematode larvae, after 5 days): 90%
- efficacy (kill) [10]: 90%

- log P [1]: 2.90
SMILES: N#CCN(C(=O)c1ccccc1C(F)(F)F)c1ccn(-c2c(F)cccc2F)n1 [Compound I-1-259]
- efficacy ([3]; application rate 500 g/ha): 100%

- log P [1]: 2.75
SMILES: COc1ccccc1C(=O)Nc1ccn(-c2c(F)cccc2F)n1 [Compound I-1-280]
- efficacy ([7]; application rate 500 g/ha): 90%

- log P [1]: 2.32
SMILES: O=C(Nc1ccn(-c2cncc(F)n2)n1)c1c(F)cccc1F [Compound I-1-403]
- efficacy ([3]; application rate 500 g/ha): 100%

- log P [1]: 2.89
SMILES: O=C(Nc1cnn(-c2ccccc2Cl)n1)c1ccccc1Cl [Compound I-2-2]
- efficacy (kill) [4]: 80%

- log P [1]: 2.38
SMILES: O=C(Nc1cnn(-c2ncccc2Cl)n1)c1ccccc1C(F)(F)F [Compound I-2-10]
- efficacy (kill) [9]: 90%

- log P [1]: 2.88
SMILES: O=C(Nc1cnn(-c2c(F)cccc2F)n1)c1c(F)cccc1C(F)(F)F [Compound I-2-39]
- efficacy ([7]; application rate 500 g/ha): 90%

- log P [1]: 2.81
SMILES: O=C(Nc1cnn(-c2c(F)cccc2F)n1)c1ccccc1I [Compound I-2-41]
- efficacy ([3]; application rate 500 g/ha): 100%

- log P [1]: 2.26
SMILES: O=C(Nc1cnn(-c2ncccc2F)n1)c1c(F)cccc1C(F)(F)F [Compound I-2-49]
- efficacy (kill) [10]: 90%

- log P [1]: 2.14
SMILES: O=C(Nc1cnn(-c2ncccc2F)n1)c1ccccc1I [Compound I-2-51]
- efficacy (kill) [10]: 80%

- log P [1]: 2.44
SMILES: O=C(Nc1cnn(-c2ncccc2Cl)n1)c1ccsc1I [Compound I-2-58]
- efficacy ([7]; application rate 500 g/ha): 90%

SMILES: O=C(Nc1ccn(-c2c(F)cccc2F)c1)c1ccccc1C(F)(F)F [Compound I-3-1, N-[1-(2,6-Difluorophenyl)-1H-pyrrol-3-yl]-2-(trifluoromethyl)benzamide]
- chromatographic logP [1]: 2.96
- efficacy (kill) [4]: 80%
- pest or weed control at 20 ppm ([5]; Cooperia curticei, 120 h, read-out: efficacy (kill)): 100%
- pest or weed control at 20 ppm [6]: 90%
- pest or weed control at 500 g/ha [2]: 100%

Reference: patent publication US9802899B2, “Heterocyclic compounds as pesticides” (BAYER CROPSCIENCE AG, priority 2012, dated 2017)
